{
  "source": "PubChem BioAssay AID1259411",
  "about": "(Chemical Carcinogenesis Research Information System (CCRIS), 2018)",
  "system": "rodent carcinogenicity bioassays, tumor incidence",
  "assay": "CCRIS carcinogenicity studies",
  "how_it_was_run": "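Archive of carcinogenicity, mutagenicity, tumor promotion and tumor inhibition results drawn from journals, NCI reports and other sources, expert-reviewed; covers 1985-2011 and is no longer updated.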",
  "note": "Calls of active or inactive are those of the source. How the calls were made is not given here.",
  "data": [
    {"molecule": "[CH3][Hg][Cl]", "values": [
      {"measurement": "carcinogen call", "setting": "Species: MOUSE, Strain/Sex: B6C3F1/FEMALE, Route: ORAL, Dose: 0, 0.4, 2, 10 PPM IN DIET FOR 104 WK (STUDY DURATION: 104 WK), Dose: 0, 0.4, 2, 10 PPM IN DIET FOR 104 WK (STUDY DURATION: 104 WK)", "result": "inactive; negative"},
      {"measurement": "carcinogen call", "setting": "Species: MOUSE, Strain/Sex: B6C3F1/MALE, Route: ORAL, Dose: 0, 0.4, 2, 10 PPM IN DIET FOR 104 WK (STUDY DURATION: 104 WK), Dose: 0, 0.4, 2, 10 PPM IN DIET FOR 104 WK (STUDY DURATION: 104 WK), Tumor Site: Type of Lesion: KIDNEY: CARCINOMA, ADENOMA", "result": "active; positive"},
      {"measurement": "carcinogen call", "setting": "Species: MOUSE, Strain/Sex: ICR/FEMALE, Route: ORAL, Dose: 0, 0.4, 2, 10 PPM IN DIET FOR 104 WK (STUDY DURATION: 104 WK), Dose: 0, 0.4, 2, 10 PPM IN DIET FOR 104 WK (STUDY DURATION: 104 WK)", "result": "inactive; negative"},
      {"measurement": "carcinogen call", "setting": "Species: MOUSE, Strain/Sex: ICR/FEMALE, Route: ORAL, Dose: 0, 10 PPM IN BASAL DIET ADMINISTERED TO SPAYED MICE FOR 80 WK (STUDY DURATION: 80 WK)", "result": "inactive; negative"},
      {"measurement": "carcinogen call", "setting": "Species: MOUSE, Strain/Sex: ICR/FEMALE, Route: ORAL, Dose: 0, 10 PPM IN BASAL DIET FOR 80 WK (STUDY DURATION: 80 WK)", "result": "inactive; negative"},
      {"measurement": "carcinogen call", "setting": "Species: MOUSE, Strain/Sex: ICR/FEMALE, Route: ORAL, Dose: 0, 15 PPM IN DIET FOR 78 WK (STUDY DURATION: 78 WK)", "result": "inactive; negative"},
      {"measurement": "carcinogen call", "setting": "Species: MOUSE, Strain/Sex: ICR/MALE, Route: ORAL, Dose: 0, 0.4, 2, 10 PPM IN DIET FOR 104 WK (STUDY DURATION: 104 WK), Dose: 0, 0.4, 2, 10 PPM IN DIET FOR 104 WK (STUDY DURATION: 104 WK), Tumor Site: Type of Lesion: KIDNEY: ADENOCARCINOMA", "result": "active; positive"},
      {"measurement": "carcinogen call", "setting": "Species: MOUSE, Strain/Sex: ICR/MALE, Route: ORAL, Dose: 0, 10 PPM IN BASAL DIET ADMINISTERED TO CASTRATED MICE FOR 80 WK (STUDY DURATION: 80 WK)", "result": "inactive; negative"},
      {"measurement": "carcinogen call", "setting": "Species: MOUSE, Strain/Sex: ICR/MALE, Route: ORAL, Dose: 0, 10 PPM IN BASAL DIET FOR 80 WK (STUDY DURATION: 80 WK), Tumor Site: Type of Lesion: KIDNEY: ADENOCARCINOMA", "result": "active; positive"},
      {"measurement": "carcinogen call", "setting": "Species: MOUSE, Strain/Sex: ICR/MALE, Route: ORAL, Dose: 0, 15 PPM IN DIET FOR 78 WK (STUDY DURATION: 78 WK), Tumor Site: Type of Lesion: KIDNEY: ADENOCARCINOMA, ADENOMA", "result": "active; positive"},
      {"measurement": "carcinogen call", "setting": "Species: RAT, Strain/Sex: SPRAGUE-DAWLEY/FEMALE, Route: ORAL, Dose: 0, 0.4, 2, 10 PPM IN DIET FOR 130 WK (STUDY DURATION: 130 WK), Dose: 0, 0.4, 2, 10 PPM IN DIET FOR 130 WK (STUDY DURATION: 130 WK)", "result": "inactive; negative"},
      {"measurement": "carcinogen call", "setting": "Species: RAT, Strain/Sex: SPRAGUE-DAWLEY/MALE, Route: ORAL, Dose: 0, 0.4, 2, 10 PPM IN DIET FOR 130 WK (STUDY DURATION: 130 WK), Dose: 0, 0.4, 2, 10 PPM IN DIET FOR 130 WK (STUDY DURATION: 130 WK)", "result": "inactive; negative"}
    ]},
    {"molecule": "Nc1ccccc1N", "values": [
      {"measurement": "carcinogen call", "setting": "Species: MOUSE, Route: ORAL, Tumor Site: Type of Lesion: LIVER", "result": "active; positive"},
      {"measurement": "carcinogen call", "setting": "Species: RAT, Route: ORAL, Tumor Site: Type of Lesion: LIVER", "result": "active; positive"}
    ]},
    {"molecule": "Nc1ccc(/C=C/c2ccc(N)c(S(=O)(=O)O)c2)c(S(=O)(=O)O)c1", "values": [
      {"measurement": "carcinogen call", "setting": "Species: MOUSE, Strain/Sex: B6C3F1/FEMALE, Route: ORAL, Dose: 0, 6250, 12500 PPM IN DIET FOR 103 WK (STUDY DURATION: 2 YR), Dose: 0, 6250, 12500 PPM IN DIET FOR 103 WK (STUDY DURATION: 2 YR)", "result": "inactive; negative"},
      {"measurement": "carcinogen call", "setting": "Species: MOUSE, Strain/Sex: B6C3F1/MALE, Route: ORAL, Dose: 0, 6250, 12500 PPM IN DIET FOR 103 WK (STUDY DURATION: 2 YR), Dose: 0, 6250, 12500 PPM IN DIET FOR 103 WK (STUDY DURATION: 2 YR)", "result": "inactive; negative"},
      {"measurement": "carcinogen call", "setting": "Species: RAT, Strain/Sex: F344/FEMALE, Route: ORAL, Dose: 0, 12500, 25000 PPM IN DIET FOR 103 WK (STUDY DURATION: 2 YR), Dose: 0, 12500, 25000 PPM IN DIET FOR 103 WK (STUDY DURATION: 2 YR)", "result": "inactive; negative"},
      {"measurement": "carcinogen call", "setting": "Species: RAT, Strain/Sex: F344/MALE, Route: ORAL, Dose: 0, 12500, 25000 PPM IN DIET FOR 103 WK (STUDY DURATION: 2 YR), Dose: 0, 12500, 25000 PPM IN DIET FOR 103 WK (STUDY DURATION: 2 YR)", "result": "inactive; negative"}
    ]},
    {"molecule": "Oc1cc(Cl)ccc1Oc1ccc(Cl)cc1Cl", "values": [
      {"measurement": "carcinogen call", "setting": "Species: Hamster, Strain/Sex: Bio FID Alexander Syrian/Female (60/group), Route: Oral, Dose: 0, 12.5, 75, 250 mg/kg in diet for 90-95 wk, Dose: 0, 12.5, 75, 250 mg/kg in diet for 90-95 wk", "result": "inactive; negative (study details not given in source; purity 99.5%)"},
      {"measurement": "carcinogen call", "setting": "Species: Hamster, Strain/Sex: Bio FID Alexander Syrian/Male (60/group), Route: Oral, Dose: 0, 12.5, 75, 250 mg/kg in diet for 90-95 wk, Dose: 0, 12.5, 75, 250 mg/kg in diet for 90-95 wk", "result": "inactive; negative (study details not given in source; purity 99.5%)"},
      {"measurement": "carcinogen call", "setting": "Species: Rat, Strain/Sex: Sprague-Dawley/Female (60/group), Route: Oral, Dose: 0, 300, 1,200, 3,000 ppm in diet for 78 wk, Dose: 0, 300, 1,200, 3,000 ppm in diet for 78 wk", "result": "inactive; negative (study details not given in source; purity 99%)"},
      {"measurement": "carcinogen call", "setting": "Species: Rat, Strain/Sex: Sprague-Dawley/Male (60/group), Route: Oral, Dose: 0, 300, 1,200, 3,000 ppm in diet for 78 wk, Dose: 0, 300, 1,200, 3,000 ppm in diet for 78 wk", "result": "inactive; negative (study details not given in source; purity 99%)"}
    ]},
    {"molecule": "O=NN1CCCCC1", "values": [
      {"measurement": "carcinogen call", "setting": "Species: HAMSTER, Route: SUBCUTANEOUS, Tumor Site: Type of Lesion: TRACHEA, NASAL CAVITY, ESOPHAGUS, FORESTOMACH, LUNG, LIVER, Tumor Site: Type of Lesion: TRACHEA, NASAL CAVITY, ESOPHAGUS, FORESTOMACH, LUNG, LIVER", "result": "active; positive"},
      {"measurement": "carcinogen call", "setting": "Species: HAMSTER, Strain/Sex: SYRIAN/MALE,FEMALE, Route: ORAL, Dose: 0.006, 0.025, 0.05% IN DRINKING WATER FOR LIFE, Dose: 0.006, 0.025, 0.05% IN DRINKING WATER FOR LIFE, Tumor Site: Type of Lesion: RESPIRATORY TRACT (LARYNX, PHARYNX, TRACHEA): PAPILLOMA, EPIDERMOID CARCINOMA, PAPILLARY POLYP, FORESTOMACH: PAPILLOMA", "result": "active; positive"},
      {"measurement": "carcinogen call", "setting": "Species: MONKEY, Route: ORAL, Tumor Site: Type of Lesion: LIVER", "result": "active; positive"},
      {"measurement": "carcinogen call", "setting": "Species: MOUSE, Route: INTRAPERITONEAL, Tumor Site: Type of Lesion: LUNG", "result": "active; positive"},
      {"measurement": "carcinogen call", "setting": "Species: MOUSE, Route: ORAL, Tumor Site: Type of Lesion: FORESTOMACH, LIVER, LUNG, Tumor Site: Type of Lesion: FORESTOMACH, LIVER, LUNG", "result": "active; positive"},
      {"measurement": "carcinogen call", "setting": "Species: RAT, Route: INTRAVENOUS, Tumor Site: Type of Lesion: ESOPHAGUS, PHARYNX", "result": "active; positive"},
      {"measurement": "carcinogen call", "setting": "Species: RAT, Route: ORAL, Tumor Site: Type of Lesion: ESOPHAGUS, LIVER", "result": "active; positive"},
      {"measurement": "carcinogen call", "setting": "Species: RAT, Route: SUBCUTANEOUS, Tumor Site: Type of Lesion: ESOPHAGUS, NASAL CAVITY", "result": "active; positive"},
      {"measurement": "carcinogen call", "setting": "Species: RAT, Strain/Sex: F344/FEMALE, Route: ORAL, Dose: 0.9 MILLIMOLAR SOLUTION (100 MG/L) IN DRINKING WATER 5/WK FOR 28 WK, Tumor Site: Type of Lesion: ESOPHAGUS: PAPILLOMA, CARCINOMA", "result": "active; positive"}
    ]},
    {"molecule": "CC(=O)C=O", "values": [
      {"measurement": "carcinogen call", "setting": "Species: MOUSE, Strain/Sex: CD-1/FEMALE, Route: DERMAL, Dose: 0, 50 UMOL/0.1 ML DMSO 2/WK FOR 5 WK FOLLOWED 1 WK LATER BY 0.1 ML ACETONE 2/WK FOR 47 WK (STUDY DURATION: 52 WK)", "result": "inactive; negative"}
    ]},
    {"molecule": "OC1c2cccc3c4ccccc4c4c5ccccc5cc(c4c23)C1O", "note": "(stereo not drawn)", "values": [
      {"measurement": "carcinogen call", "setting": "Species: MOUSE, Strain/Sex: SWISS/FEMALE, Route: DERMAL, Dose: 0, 1, 4 NMOL IN 100 µL ACETONE 2/WK FOR 40 WK (STUDY DURATION: 48 WK), Dose: 0, 1, 4 NMOL IN 100 µL ACETONE 2/WK FOR 40 WK (STUDY DURATION: 48 WK)", "result": "inactive; negative"}
    ]}
  ]
}
